Results on eleven compounds are retold here after ChEMBL document CHEMBL5303573, “Mapping human microbiome drug metabolism by gut bacteria and their genes” (Nature, 2019).

The structures appear in SMILES notation.

Common to all, as to type: ADME
Common to all, as to design: dose 2 uM
Holding throughout (details): 2 µM

The target of data set [1] is T1, Nitroreductase domain-containing protein (Phocaeicola dorei, UniProt B6VU18).
T1 sequence (B6VU18 whole entry): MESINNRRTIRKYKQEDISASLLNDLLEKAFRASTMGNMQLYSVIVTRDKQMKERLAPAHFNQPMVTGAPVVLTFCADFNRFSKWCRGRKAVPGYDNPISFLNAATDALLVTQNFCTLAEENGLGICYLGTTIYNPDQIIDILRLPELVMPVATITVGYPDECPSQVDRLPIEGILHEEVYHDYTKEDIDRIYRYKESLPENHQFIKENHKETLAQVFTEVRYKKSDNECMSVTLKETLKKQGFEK
Put plainly: The drug is tested on Bacteroides dorei strain: DSM17855 for biotransformation. The drug concentrations were measured before and after a 12-h incubation by liquid-chromatography-coupled mass spectrometry (LC–MS).

The target of data set [2] is T2, Sialic acid-specific acetylesterase (Bacteroides thetaiotaomicron, UniProt Q8A331).
T2 sequence (Q8A331 whole entry): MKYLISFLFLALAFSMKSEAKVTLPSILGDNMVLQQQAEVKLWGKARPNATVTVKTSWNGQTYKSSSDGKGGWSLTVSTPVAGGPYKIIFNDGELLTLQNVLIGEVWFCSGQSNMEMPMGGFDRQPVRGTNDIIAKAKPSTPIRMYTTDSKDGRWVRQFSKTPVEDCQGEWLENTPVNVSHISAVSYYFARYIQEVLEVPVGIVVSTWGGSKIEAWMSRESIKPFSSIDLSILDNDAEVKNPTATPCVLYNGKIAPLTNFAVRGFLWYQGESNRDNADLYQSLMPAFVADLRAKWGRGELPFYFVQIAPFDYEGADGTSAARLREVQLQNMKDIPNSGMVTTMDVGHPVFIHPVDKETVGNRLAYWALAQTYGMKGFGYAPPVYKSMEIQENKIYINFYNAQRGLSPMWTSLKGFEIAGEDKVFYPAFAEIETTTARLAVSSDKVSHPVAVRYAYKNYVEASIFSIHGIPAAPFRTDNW
Nature of the data set: (§1) The drug is tested on Bacteroides thetaiotaomicron strain: VPI-5482 for biotransformation. The drug concentrations were measured before and after a 12-h incubation by liquid-chromatography-coupled mass spectrometry (LC–MS).

The target of data set [3] is T3, Nitroreductase (Bacteroides thetaiotaomicron, UniProt Q8A911).
T3 sequence (Q8A911 whole entry): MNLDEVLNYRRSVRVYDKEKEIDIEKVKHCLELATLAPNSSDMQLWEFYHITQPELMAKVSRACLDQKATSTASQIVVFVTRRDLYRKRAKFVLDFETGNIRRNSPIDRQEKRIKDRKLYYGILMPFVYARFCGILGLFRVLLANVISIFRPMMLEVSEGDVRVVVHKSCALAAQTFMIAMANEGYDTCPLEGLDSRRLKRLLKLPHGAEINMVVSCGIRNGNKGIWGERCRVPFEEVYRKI
The data set is described as §1.

Data set [4] addresses T4, NADH dehydrogenase/NAD(P)H nitroreductase (Bacteroides thetaiotaomicron, UniProt Q8A8L9).
T4 sequence (Q8A8L9 whole entry): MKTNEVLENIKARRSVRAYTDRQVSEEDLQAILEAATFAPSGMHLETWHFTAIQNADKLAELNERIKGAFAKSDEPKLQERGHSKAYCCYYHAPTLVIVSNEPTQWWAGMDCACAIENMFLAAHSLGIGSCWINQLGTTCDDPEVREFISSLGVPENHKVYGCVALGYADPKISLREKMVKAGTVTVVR
The data set is described as §1.

The target in data set [5] is T5, Lipolytic enzyme, G-D-S-L family (Bacteroides thetaiotaomicron, UniProt Q8A0E6).
T5 sequence (Q8A0E6 whole entry): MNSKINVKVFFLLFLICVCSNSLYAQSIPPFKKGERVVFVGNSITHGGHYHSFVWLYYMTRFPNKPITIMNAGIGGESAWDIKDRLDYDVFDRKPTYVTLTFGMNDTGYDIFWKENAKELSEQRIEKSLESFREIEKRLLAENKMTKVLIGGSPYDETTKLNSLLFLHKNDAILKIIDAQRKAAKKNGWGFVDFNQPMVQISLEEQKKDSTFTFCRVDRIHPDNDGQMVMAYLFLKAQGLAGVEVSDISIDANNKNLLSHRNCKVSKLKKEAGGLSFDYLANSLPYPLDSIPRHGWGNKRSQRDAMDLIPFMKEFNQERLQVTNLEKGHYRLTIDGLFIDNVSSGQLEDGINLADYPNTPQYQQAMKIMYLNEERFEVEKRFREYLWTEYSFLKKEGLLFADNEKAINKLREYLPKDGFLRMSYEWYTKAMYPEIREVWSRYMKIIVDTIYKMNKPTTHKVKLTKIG
Described as §1.

The target of data set [6] is T6, Acetyl esterase (Acetylxylosidase) (Bacteroides thetaiotaomicron, UniProt Q8ABF8).
T6 sequence (Q8ABF8 whole entry): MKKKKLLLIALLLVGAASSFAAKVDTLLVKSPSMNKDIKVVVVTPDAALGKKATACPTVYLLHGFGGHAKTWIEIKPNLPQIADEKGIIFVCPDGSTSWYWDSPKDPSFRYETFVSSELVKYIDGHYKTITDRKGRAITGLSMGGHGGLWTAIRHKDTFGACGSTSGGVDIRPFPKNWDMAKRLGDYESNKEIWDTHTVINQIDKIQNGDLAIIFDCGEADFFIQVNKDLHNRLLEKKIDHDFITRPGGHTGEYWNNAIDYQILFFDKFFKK
The data set is described as §1.

For data set [7], the target named is T7, Regulatory protein (Bacteroides thetaiotaomicron, UniProt Q8A576).
T7 sequence (Q8A576 whole entry): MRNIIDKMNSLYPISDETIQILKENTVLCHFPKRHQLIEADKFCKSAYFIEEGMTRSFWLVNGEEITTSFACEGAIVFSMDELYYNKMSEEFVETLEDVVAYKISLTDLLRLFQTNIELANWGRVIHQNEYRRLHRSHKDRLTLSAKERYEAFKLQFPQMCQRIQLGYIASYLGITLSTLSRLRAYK
The data set is described as §1.

Data set [8] concerns the target T8, Endoglucanase E (EGE) (Bacteroides thetaiotaomicron, UniProt Q8AAL9).
T8 sequence (Q8AAL9 whole entry): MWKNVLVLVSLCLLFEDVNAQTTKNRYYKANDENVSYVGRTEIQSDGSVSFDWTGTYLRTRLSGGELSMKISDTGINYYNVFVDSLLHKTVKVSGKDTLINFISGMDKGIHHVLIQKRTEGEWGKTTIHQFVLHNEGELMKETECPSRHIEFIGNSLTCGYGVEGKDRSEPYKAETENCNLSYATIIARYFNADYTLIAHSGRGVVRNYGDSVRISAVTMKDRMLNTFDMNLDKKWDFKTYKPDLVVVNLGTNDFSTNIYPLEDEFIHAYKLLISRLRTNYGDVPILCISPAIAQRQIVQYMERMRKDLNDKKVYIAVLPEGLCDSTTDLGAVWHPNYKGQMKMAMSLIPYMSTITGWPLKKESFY
The data set is described as §1.

In the case of `C[C@@H]1CC[C@H]2[C@@H](C)C(=O)O[C@@H]3O[C@@]4(C)CC[C@@H]1[C@]32OO4` [ARTEMISININ], the “Bacterial Biotransformation” value in data set [1], in data set [2], in data set [3], in data set [4], in data set [5] and in data set [6] was “Compound NOT metabolized” throughout. The “Bacterial Biotransformation” value in data set [7] and in data set [8] was “Compound NOT metabolized” in each case.
`Nc1ccc(/N=N/c2ccccc2)c(N)n1` [PHENAZOPYRIDINE]: the “Bacterial Biotransformation” value in data set [1], in data set [2], in data set [3], in data set [4], in data set [5] and in data set [6] was “Compound NOT metabolized” in each case. In addition, the “Bacterial Biotransformation” value in data set [7] and in data set [8] was “Compound NOT metabolized” throughout.
In the case of `CC(=O)OCC(=O)NCCCOc1cccc(CN2CCCCC2)c1` [ROXATIDINE ACETATE], the “Bacterial Biotransformation” value in data set [1] was “Compound NOT metabolized”; in data set [2], “Compound NOT metabolized”; in data set [3], “Compound NOT metabolized”; in data set [4], “Compound NOT metabolized”; in data set [6], “Compound metabolized”; in data set [7] it was “Compound metabolized”. Further, the “Bacterial Biotransformation” value in data set [8] is on record as “Compound NOT metabolized”.
For the compound `CCS(=O)(=O)CCn1c([N+](=O)[O-])cnc1C` [TINIDAZOLE], the “Bacterial Biotransformation” value is “Compound metabolized” in data set [1]; “Compound NOT metabolized” in data set [2]; “Compound metabolized” in data set [3]; “Compound metabolized” in data set [4]; “Compound NOT metabolized” in data set [5]; “Compound NOT metabolized” in data set [6]. The “Bacterial Biotransformation” value in data set [7] and in data set [8] was “Compound NOT metabolized” in each case.
`CC(=O)Oc1ccc(C(c2ccc(OC(C)=O)cc2)c2ccccn2)cc1` [BISACODYL]: the “Bacterial Biotransformation” value in data set [1] is listed as “Compound NOT metabolized”; in data set [2], “Compound metabolized”; in data set [3] it was “Compound NOT metabolized”; in data set [4], “Compound NOT metabolized”; in data set [5] it was “Compound NOT metabolized”; in data set [6], “Compound metabolized”. Besides, the figures for the “Bacterial Biotransformation” value in data set [7] and in data set [8] were “Compound NOT metabolized” and “Compound metabolized”, respectively.
With `C#C[C@]1(O)CC[C@H]2[C@@H]3CCC4=Cc5oncc5C[C@]4(C)[C@H]3CC[C@@]21C` [DANAZOL], the “Bacterial Biotransformation” value in data set [1], in data set [2], in data set [3], in data set [4], in data set [5] and in data set [6] was “Compound NOT metabolized” throughout. Besides, the “Bacterial Biotransformation” value in data set [7] and in data set [8] was “Compound NOT metabolized” each time.
As for `COc1ccnc(C[S+]([O-])c2nc3ccc(OC(F)F)cc3[nH]2)c1OC` (stereo not drawn) [PANTOPRAZOLE], the “Bacterial Biotransformation” value in data set [1], in data set [2], in data set [3], in data set [4], in data set [5] and in data set [6] was “Compound NOT metabolized” in each case. In addition, the “Bacterial Biotransformation” value in data set [7] and in data set [8] was “Compound NOT metabolized” in each case.
`CCN(CC)C(=O)/C(C#N)=C/c1cc(O)c(O)c([N+](=O)[O-])c1` [ENTACAPONE]: the “Bacterial Biotransformation” value in data set [1] is listed as “Compound NOT metabolized”; in data set [2], “Compound NOT metabolized”; in data set [3], “Compound NOT metabolized”; in data set [4] it was “Compound metabolized”; in data set [5], “Compound NOT metabolized”; in data set [6] it was “Compound NOT metabolized”. Also, the “Bacterial Biotransformation” value in data set [7] and in data set [8] was “Compound NOT metabolized” in each case.
As to `CCOC(=O)C1=C(C)NC(C)=C(C(=O)OC)C1c1cccc([N+](=O)[O-])c1` (stereo not drawn) [NITRENDIPINE], the “Bacterial Biotransformation” value in data set [1] is “Compound metabolized”; in data set [2], “Compound NOT metabolized”; in data set [3], “Compound NOT metabolized”; in data set [5] it was “Compound NOT metabolized”; in data set [6] it was “Compound NOT metabolized”; in data set [7], “Compound NOT metabolized”.
Consider `CC(=O)OCC(=O)[C@@]12N=C(C)O[C@@H]1C[C@H]1[C@@H]3CCC4=CC(=O)C=C[C@]4(C)[C@H]3[C@@H](O)C[C@@]12C` [DEFLAZACORT], for which the “Bacterial Biotransformation” value in data set [1], in data set [3], in data set [4], in data set [5], in data set [6] and in data set [7] was “Compound NOT metabolized” throughout. Besides, in data set [8], the “Bacterial Biotransformation” value was “Compound NOT metabolized”.
With `O=C(O)c1cc(/N=N/c2ccc(S(=O)(=O)Nc3ccccn3)cc2)ccc1O` [SULFASALAZINE], the “Bacterial Biotransformation” value in data set [1], in data set [2], in data set [3], in data set [4], in data set [5] and in data set [7] was “Compound NOT metabolized” throughout. Further, the “Bacterial Biotransformation” value in data set [8] is recorded as “Compound NOT metabolized”.
